Values quoted from earlier work as cited in US12383619B2, “Use of glutamate modulating agents with immunotherapies to treat cancer” (Biohaven Therapeutics Ltd., priority 2016, dated 2025).
Where two headings read alike, the source gives them in different places.

Assays:
advanced melanoma = details: 3 mg/kg every 3 weeks, cited from earlier work
[1] = system: advanced (unresectable or metastatic) melanoma; details: cited from earlier work; for median OS: 3 mg/kg monotherapy group
PD-1 = target: T1, PD-1 (Homo sapiens, UniProt Q15116); details: 15 subjects, 0.3 mg/kg to 10 mg/kg, across all doses; cited from earlier work
T1 construct: indicate that PD-1 occupancy appears to be dose-independent in this dose range; host or cells: endogenous receptor in dosed subjects
T1 sequence (Q15116 25-288): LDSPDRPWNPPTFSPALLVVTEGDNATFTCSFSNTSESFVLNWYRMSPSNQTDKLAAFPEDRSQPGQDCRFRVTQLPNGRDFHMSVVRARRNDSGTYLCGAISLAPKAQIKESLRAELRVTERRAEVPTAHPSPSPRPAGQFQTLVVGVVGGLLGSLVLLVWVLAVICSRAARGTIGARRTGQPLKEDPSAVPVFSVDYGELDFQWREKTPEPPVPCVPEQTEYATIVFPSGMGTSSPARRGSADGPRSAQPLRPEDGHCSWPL

[2] = system: advanced (unresectable or metastatic) melanoma; details: cited from earlier work
[3] = patients who required re-treatment, ipilimumab monotherapy group
[4] = nivolumab 3 mg/kg every 2 weeks vs dacarbazine

## Ipilimumab: fully human IgG1 monoclonal antibody that blocks the binding of CTLA-4 to its B7 ligands
Advanced melanoma
  Best overall response: ORR %: 12%
  Complete response %: 1%
  OS: % of patients with event: (40%)
  OS: Median in months: Not reached
  OS: Number of patients with event: 112
  PFS: % of patients with event: (68%)
  PFS: Median in months: 2.8 months
  PFS: Number of patients with event: 188
  Partial response %: 10%
  Response duration: % ongoing: 88%
Advanced melanoma; patients with confirmed complete or partial response
  Response duration: Median in months: Not reached
[1]; patients with CR or PR
  median OS: not reached
[1]; patients with PD
  median OS: 8 months
[1]; patients with SD
  median OS: 22 months
[1]; 3 mg/kg monotherapy, n = 137
  OS at 1 year % (95% CI): 46% (37.0, 54.1)
  OS at 2 years % (95% CI): 24% (16.0, 31.5)
  Overall survival: Median Months: 10 months
[1]; ipilimumab monotherapy vs gp100
  hazard ratio (HR) for comparison of OS: 0.66
[1]; [3]
  BORR: 38%
  disease control rate (DCR) (CR+PR+SD): 75%

## nivolumab
PD-1
  mean occupancy rate (PD-1): 85%
  mean plateau occupancy (PD-1): 72%
[2]; 3 mg/kg every 2 weeks, n = 210
  Complete response (CR) (number): 16
  Objective response (number): 84
  Overall survival: Events: 50
  Overall survival: Events, figure in parentheses: (23.8)
  Partial response (PR) (number): 68
  Progression-free survival: Events: 108
  Progression-free survival: Events, figure in parentheses: (51.4)
  Stable disease (SD) (number): 35
[2]; 3 mg/kg every 2 weeks
  Complete response (CR) (%): (7.6%)
  Median duration of response: Not reached
  Median time to response: 2.1 Months
  Objective response (%): (40.0%)
  Overall survival: Median: Not reached
  Overall survival: Rate At 6 months: 84.1
  Overall survival: Rate At 12 months: 72.9
  Partial response (PR) (%): (32.4%)
  Progression-free survival: Median: 5.1
  Progression-free survival: Rate At 6 months: 48.0
  Progression-free survival: Rate At 12 months: 41.8
  Stable disease (SD) (%): (16.7%)
[2]; [4]
  Objective response: Odds ratio: 4.06
  Overall survival: Hazard ratio: 0.42
  Progression-free survival: Hazard ratio: 0.43
